Measurements as given in patent publication US11207301B2, “Sphingosine 1 phosphate receptor agonists for neuroprotection” (RECEPTOS LLC, priority 2017, dated 2021).

Legend:
[1] = system: AKT phosphorylation in primary mouse astrocytes; assay: AKT phosphorylation in primary mouse cortical astrocytes (AlphaLISA SureFire Ultra); assay type: cell-based; conditions: Astrocyte, 10 min, 10-minute exposure, mean of n=3
Method: (§1) For the experiments using mouse and human primary astrocytes, ten-point concentration-response curves (90 nM-4.57 pM or 30 nM-1.52 pM) were generated for AKT and/or ERK phosphorylation in primary human and mouse cortical astrocytic cultures in response to a 10-minute treatment with ozanimod, Compound 3, Compound 1, or FTY720-P. AKT and ERK phosphorylation were quantified using AlphaLISA SureFire Ultra Assay kits and the EnVision Plate Reader. AKT and ERK phosphorylation within treated astrocytes were expressed as the mean change in signal intensity compared to the dimethyl sulfoxide (DMSO) vehicle and the half maximal effective concentration (EC50) was determined using non-linear regression.
(§2) Timed pregnant (E16) C57BL/6J female mice arrive to the test facility on a weekly basis and were housed and cared for according to appropriate protocols for this model. Primary mouse cortical astrocytes are harvested from P0-P2 pups. The newly born animals were deeply anesthetized on ice, decapitated, and the brains were rapidly removed and stored in ice-cold NbAstro media (BrainBits, LLC). Cells were dissociated from freshly dissected cortices by mechanical disruption in the presence of trypsin and DNase. Cells were put into a PDL coated T75 tissue culture flask containing 16 mL NbAstro Media and incubated at 37° C. 5% CO2. Once the mouse astrocytes had reached confluency in the T75 flask, they were detached using TripLE detachment reagent, pelleted at 300×g, expanded into two T225 PDL coated tissue culture flasks containing 40 mL of NbAstro and incubated at 37° C. 5% CO2. Once the astrocytes reached confluency in the T225 flasks they were detached using TrypLE detachment reagent, pelleted at 300×g, plated into PDL coated 96-well plates at a density of 10,000 cells per well in 200 μL NbAstro and incubated at 37° C. 5% CO2. Half of the media was replenished every 3-4 days. After 5-7 days of incubation, the P2 mouse astrocyte plates were utilized for the pERK and pAKT assays.
Cell lysis and detection of pAKT were performed according to the PerkinElmer AlphaLISA SureFire Ultra pAKT1/2/3 ([…]) assay protocol. Astrocytes were lysed in the 96-well plate following a 10 minute incubation with compounds with shaking at room temperature (RT). The astrocytic lysates (10 μL/well) were transferred into a 384-well OptiPlate. As specified by the assay protocol, an acceptor bead mix and a donor bead mix (5 μL/well for each) were added to the plate under subdued light. […] The plates were read on the EnVision Plate Reader to assess the pAKT levels.
(§3) The AKT and ERK phosphorylation data, collected by a Perkin Elmer EnVision Microplate Reader, was analyzed by non-linear regression (GraphPad Prism, version 7.03) to determine the EC50 values.

[2] = system: ERK phosphorylation in primary mouse astrocytes; assay: ERK phosphorylation in primary mouse cortical astrocytes (AlphaLISA SureFire Ultra); assay type: cell-based; conditions: Astrocyte, 10 min, 10-minute exposure
Method: as §1
as §2, with “Once the astrocytes reached confluency in the T225 flasks they were detached using TrypLE detachment reagent, pelleted at 300×g, plated into PDL coated 96-well plates at a density of 10,000 cells per well in 200 μL NbAstro and incubated at 37° C. 5% CO2. Half of the media was replenished every 3-4 days. After 5-7 days of incubation, the P2 mouse astrocyte plates were utilized for the pERK and pAKT assays.” left out
Cell lysis and detection of pERK were performed according to the PerkinElmer AlphaLISA SureFire Ultra p-ERK1/2 (Thr202/TYR 204) assay protocol. […] The plates were read on the EnVision Plate Reader to assess the pERK levels.
as §3

| SMILES | EC50 [1] [nM] | EC50 [2] [nM] |
| --- | --- | --- |
| CC(C)Oc1ccc(-c2nc(-c3cccc4c3CC[C@@H]4NCCO)no2)cc1C#N [Ozanimod] | 0.9 | 2.42 |
| CC(C)Oc1ccc(-c2nc(-c3cccc4c3CCC4=O)no2)cc1C#N [Compound 1, 2-isopropoxy-5-(3-(1-oxo-2,3-dihydro-1H-inden-4-yl)-1,2,4-oxadiazol-5-yl)benzonitrile] | 0.49 | 0.87 |
